The values that follow are results of earlier work, collected in patent US12378302B2, “Fusion molecules and uses thereof” (Foundation Medicine, Inc., priority 2012, dated 2025).

Broadly, the IC50 is the midpoint of a concentration-inhibition curve. The Ki is a measure of affinity in units of concentration, obtained from inhibition or displacement.

Read-outs that look alike come from different tables or passages of the source.

Data set [1] concerns HER2, PDGFR, VEGFR-2, Bcr-Abl and c-Kit.
For data set [2], the target named is InsR (Homo sapiens, UniProt P06213).
InsR, sequence (P06213 28-1382, species assumed): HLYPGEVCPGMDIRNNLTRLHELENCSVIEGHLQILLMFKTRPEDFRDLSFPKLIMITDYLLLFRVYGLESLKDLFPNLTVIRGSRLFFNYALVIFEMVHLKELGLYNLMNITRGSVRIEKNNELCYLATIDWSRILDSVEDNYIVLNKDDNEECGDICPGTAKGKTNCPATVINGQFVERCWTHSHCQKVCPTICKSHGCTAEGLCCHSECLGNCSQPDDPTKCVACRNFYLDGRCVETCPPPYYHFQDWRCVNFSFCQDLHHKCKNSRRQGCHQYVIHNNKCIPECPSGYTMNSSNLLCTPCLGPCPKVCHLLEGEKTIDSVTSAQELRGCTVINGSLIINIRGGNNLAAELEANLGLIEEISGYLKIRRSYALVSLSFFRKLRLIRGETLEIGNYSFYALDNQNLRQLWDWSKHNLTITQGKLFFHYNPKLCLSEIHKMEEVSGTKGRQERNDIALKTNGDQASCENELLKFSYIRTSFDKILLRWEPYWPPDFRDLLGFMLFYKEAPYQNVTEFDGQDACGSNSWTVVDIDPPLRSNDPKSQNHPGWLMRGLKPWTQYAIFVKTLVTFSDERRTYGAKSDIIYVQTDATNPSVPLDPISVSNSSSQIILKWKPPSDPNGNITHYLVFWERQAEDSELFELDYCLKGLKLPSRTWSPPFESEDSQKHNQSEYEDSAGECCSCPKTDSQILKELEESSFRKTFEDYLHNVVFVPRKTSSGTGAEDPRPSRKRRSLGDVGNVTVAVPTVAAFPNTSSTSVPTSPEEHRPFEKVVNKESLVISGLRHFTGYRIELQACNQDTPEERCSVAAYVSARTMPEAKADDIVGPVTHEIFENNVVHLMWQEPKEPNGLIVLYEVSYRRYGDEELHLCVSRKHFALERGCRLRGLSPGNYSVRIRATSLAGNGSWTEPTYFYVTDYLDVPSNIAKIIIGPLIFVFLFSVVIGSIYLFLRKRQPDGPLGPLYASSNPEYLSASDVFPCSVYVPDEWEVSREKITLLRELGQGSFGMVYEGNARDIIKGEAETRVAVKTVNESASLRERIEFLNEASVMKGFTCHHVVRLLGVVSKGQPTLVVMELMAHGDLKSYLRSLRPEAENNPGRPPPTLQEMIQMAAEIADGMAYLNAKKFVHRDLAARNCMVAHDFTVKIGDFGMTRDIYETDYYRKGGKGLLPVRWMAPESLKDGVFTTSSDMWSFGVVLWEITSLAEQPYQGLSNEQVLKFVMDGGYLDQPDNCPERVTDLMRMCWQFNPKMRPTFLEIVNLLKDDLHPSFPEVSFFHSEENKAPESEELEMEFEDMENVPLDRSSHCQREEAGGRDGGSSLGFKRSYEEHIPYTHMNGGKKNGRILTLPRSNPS
Data set [3] has as its target EGFR (Homo sapiens, UniProt P00533). The settings on record: ErbB family vs other kinases.
Data set [4] addresses T1, PDGFRα (Homo sapiens, UniProt P16234). The settings on record: read-out: IC50 against PDGFRα.
The target in data set [5] is T1, PDGFRα.
Data set [6] deals with Akt and PDK1.
The subject of data set [7] is Abl, Fyn, Kit, Lck, Lyn and Yes.
Data set [8] shares this test system. This is another data set of the same source.
Data set [9] concerns VEGFR2. The following applies: VEGFR2/3 vs FGFR1, PDGFRα/β.
The target of data set [10] is FKBP12 (Homo sapiens, UniProt P62942). The following applies: read-out: IC50 mTOR inhibitor of FKBP12.
FKBP12, sequence (P62942 whole entry): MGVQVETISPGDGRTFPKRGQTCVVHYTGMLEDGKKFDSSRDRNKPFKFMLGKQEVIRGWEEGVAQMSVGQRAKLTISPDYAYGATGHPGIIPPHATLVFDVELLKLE
Data set [11] has as its system FGFR1 and EGFR.
Data set [12] addresses PKA.
Data set [13] addresses PKG.
For data set [14], the target named is CaMK. The settings on record: competitively with ATP.
Data set [15] deals with PKC.
Data set [16] deals with phosphorylation of FGFR-1, EGFR or c-Met.
Data set [17] relates to PI3Ks.
In data set [18] the test system is PDGFRβ, IGF-1R, EGFR.
For data set [19], the system named is HEL92.1.7 cells. The settings on record: read-out: IC50 antiproliferative activity.
Data set [20] has as its system myeloproliferative disorders.
For data set [21], the system named is HEL92.1.7 cells. The following applies: read-out: IC50 antiproliferative activity in vitro.
In data set [22] the test system is STAT5 phosphorylation. The settings on record: read-out: IC50 for prevention of STAT5 phosphorylation.
For data set [23], the system named is STAT5 phosphorylation.
Data set [24] has as its system myeloproliferative disorders. The source holds these as a separate data set.
Data set [25] concerns Aβ40 production.
Data set [26] has as its target B-Raf^V600E (Homo sapiens, UniProt P15056, V600E). The settings on record: V600E vs wild-type.
In data set [27] the target is c-Raf-1 (Y340D and Y341D mutations) (Homo sapiens, UniProt P04049, Y340D/Y341D).
Data set [28] deals with H460 cells. The following applies: read-out: IC50 reduction of colony number and size.
Data set [29] relates to Akt1, CDKs, PLK1, EGFR, IGF-1R, c-Met, Flt2 etc.
In data set [30] the target is VEGFR3 (Homo sapiens, UniProt P35916).
VEGFR3, sequence (P35916 25-1363): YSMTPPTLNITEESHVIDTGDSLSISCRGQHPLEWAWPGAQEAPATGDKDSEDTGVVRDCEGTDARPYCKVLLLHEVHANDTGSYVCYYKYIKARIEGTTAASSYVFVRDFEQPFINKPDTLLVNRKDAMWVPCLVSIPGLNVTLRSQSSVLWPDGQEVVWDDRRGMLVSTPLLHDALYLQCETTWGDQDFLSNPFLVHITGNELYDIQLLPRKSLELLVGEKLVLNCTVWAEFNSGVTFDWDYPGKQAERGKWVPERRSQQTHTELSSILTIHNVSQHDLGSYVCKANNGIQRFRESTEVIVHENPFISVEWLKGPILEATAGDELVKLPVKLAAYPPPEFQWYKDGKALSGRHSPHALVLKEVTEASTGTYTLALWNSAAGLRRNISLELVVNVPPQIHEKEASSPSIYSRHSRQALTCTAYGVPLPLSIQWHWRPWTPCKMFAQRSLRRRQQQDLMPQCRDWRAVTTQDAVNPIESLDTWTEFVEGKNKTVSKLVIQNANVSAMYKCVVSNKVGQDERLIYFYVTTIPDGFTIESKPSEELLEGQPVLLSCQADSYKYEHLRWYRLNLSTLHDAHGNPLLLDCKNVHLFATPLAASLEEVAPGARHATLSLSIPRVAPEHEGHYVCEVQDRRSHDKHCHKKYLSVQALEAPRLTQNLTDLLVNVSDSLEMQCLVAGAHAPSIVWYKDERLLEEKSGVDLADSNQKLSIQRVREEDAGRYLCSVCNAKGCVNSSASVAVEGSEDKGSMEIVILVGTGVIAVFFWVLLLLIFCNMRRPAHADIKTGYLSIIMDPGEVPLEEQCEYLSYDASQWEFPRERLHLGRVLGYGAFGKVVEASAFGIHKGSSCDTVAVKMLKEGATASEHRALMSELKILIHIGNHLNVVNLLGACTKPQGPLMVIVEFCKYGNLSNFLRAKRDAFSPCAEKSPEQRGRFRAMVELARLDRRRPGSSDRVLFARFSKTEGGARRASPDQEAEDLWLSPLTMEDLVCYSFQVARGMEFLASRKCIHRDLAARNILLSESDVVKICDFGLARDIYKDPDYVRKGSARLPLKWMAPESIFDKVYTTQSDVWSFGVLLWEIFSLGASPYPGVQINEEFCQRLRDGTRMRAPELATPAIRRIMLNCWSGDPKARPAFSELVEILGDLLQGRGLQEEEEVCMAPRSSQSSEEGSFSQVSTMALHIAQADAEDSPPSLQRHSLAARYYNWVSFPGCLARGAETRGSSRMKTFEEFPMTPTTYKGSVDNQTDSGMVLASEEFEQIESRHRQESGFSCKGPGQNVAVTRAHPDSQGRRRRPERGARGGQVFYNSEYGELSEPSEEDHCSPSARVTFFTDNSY
In data set [31] the test system is panel of 12 PMTs and DNMT1.
Data set [32] concerns FGFR-1, Flt3, c-Met EGFR and IGF-1R.
The test system is the same in data set [33]. This is another data set of the same source.

T1 sequence (P16234 24-1089, species assumed): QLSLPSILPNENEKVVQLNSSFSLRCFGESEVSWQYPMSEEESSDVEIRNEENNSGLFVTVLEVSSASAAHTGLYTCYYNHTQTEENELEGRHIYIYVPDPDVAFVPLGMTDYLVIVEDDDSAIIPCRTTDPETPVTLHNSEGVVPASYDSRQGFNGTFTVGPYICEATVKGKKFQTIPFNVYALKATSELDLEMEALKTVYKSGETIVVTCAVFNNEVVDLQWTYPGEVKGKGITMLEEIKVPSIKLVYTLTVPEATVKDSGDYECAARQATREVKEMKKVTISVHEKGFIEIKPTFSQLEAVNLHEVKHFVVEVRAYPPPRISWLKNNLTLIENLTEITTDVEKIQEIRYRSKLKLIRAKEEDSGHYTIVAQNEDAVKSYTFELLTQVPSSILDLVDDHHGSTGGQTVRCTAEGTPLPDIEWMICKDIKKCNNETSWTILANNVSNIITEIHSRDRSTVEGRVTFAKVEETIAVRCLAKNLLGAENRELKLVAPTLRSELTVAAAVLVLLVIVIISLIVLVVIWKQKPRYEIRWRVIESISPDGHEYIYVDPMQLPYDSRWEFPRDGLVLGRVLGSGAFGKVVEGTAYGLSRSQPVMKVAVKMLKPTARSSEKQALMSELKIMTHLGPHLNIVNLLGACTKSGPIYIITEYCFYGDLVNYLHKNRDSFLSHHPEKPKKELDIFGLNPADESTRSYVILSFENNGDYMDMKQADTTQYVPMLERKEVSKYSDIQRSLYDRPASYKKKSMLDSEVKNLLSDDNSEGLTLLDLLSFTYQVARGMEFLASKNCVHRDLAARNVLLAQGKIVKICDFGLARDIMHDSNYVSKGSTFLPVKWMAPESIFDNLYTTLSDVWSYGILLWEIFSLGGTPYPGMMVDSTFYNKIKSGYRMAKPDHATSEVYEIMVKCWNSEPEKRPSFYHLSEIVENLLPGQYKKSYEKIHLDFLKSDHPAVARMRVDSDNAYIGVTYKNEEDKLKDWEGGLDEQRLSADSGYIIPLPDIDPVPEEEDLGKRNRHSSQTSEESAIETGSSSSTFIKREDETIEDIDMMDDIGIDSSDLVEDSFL
EGFR, sequence (P00533 25-1210): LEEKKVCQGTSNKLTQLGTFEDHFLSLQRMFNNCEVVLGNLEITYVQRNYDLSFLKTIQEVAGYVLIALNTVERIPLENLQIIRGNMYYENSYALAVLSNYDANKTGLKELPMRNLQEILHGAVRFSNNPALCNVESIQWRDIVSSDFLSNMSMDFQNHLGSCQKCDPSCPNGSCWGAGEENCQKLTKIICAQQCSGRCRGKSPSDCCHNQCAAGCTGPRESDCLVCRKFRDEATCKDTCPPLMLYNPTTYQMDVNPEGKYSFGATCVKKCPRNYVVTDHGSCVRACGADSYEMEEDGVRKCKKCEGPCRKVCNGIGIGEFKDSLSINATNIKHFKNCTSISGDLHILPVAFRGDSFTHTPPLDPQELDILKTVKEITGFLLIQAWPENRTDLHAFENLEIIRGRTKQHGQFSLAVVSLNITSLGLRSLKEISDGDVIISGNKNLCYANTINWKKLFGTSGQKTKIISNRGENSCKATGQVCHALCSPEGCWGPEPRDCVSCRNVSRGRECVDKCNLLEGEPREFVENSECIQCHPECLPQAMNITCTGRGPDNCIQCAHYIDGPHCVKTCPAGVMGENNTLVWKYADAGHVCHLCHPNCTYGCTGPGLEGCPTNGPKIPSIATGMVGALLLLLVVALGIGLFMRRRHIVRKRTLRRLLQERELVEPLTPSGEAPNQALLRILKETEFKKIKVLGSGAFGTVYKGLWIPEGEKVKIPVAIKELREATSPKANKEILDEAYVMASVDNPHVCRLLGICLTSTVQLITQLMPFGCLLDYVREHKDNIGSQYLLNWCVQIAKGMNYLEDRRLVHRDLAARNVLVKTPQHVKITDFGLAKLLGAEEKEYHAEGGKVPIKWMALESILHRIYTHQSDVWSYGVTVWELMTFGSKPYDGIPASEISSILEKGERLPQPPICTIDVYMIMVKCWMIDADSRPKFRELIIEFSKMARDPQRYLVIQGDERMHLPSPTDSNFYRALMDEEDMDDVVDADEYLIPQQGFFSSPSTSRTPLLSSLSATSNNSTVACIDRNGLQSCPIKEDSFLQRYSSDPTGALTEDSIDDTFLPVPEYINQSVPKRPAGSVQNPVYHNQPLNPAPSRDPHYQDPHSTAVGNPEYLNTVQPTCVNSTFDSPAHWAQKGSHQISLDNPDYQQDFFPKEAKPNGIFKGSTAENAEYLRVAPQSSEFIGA

Consider `Nc1ncnc2c1c(-c1cccc(OCc3ccccc3)c1)cn2C1CC(CN2CCCC2)C1` (stereo in doubt) [NVP-ADW742, 5-(3-(benzyloxy)phenyl)-7-((1r,3r)-3-(pyrrolidin-1-ylmethyl)cyclobutyl)-7H-pyrrolo[2,3-d]pyrimidin-4-amine], for which the “activity to HER2, PDGFR, VEGFR-2, Bcr-Abl and c-Kit” value in data set [1] is on record as “little activity”.
For the compound `CC(C)(C)c1cc(C=C(C#N)C#N)cc(Br)c1O` [AG-1024, 2-(3-bromo-5-tert-butyl-4-hydroxybenzylidene) malononitrile], the IC50 in [2] is 57 µM.
As for `C=CC(=O)Nc1ccc2ncnc(Nc3ccc(OCc4cccc(F)c4)c(Cl)c3)c2c1.Cc1ccc(S(=O)(=O)O)cc1` [AST-1306, 2-Propenamide, N-[4-[[3-chloro-4-[(3-fluorophenyl)methoxy]phenyl]amino]-6-quinazolinyl]-, 4-methylbenzenesulfonate (1:1)], the “selective for ErbB family than other kinases” value in data set [3] was 3000 fold.
As for `S=C(NCc1ccc2c(c1)OCO2)N1CCN(c2ncnc3c2oc2ccccc23)CC1` [Amuvatinib], the IC50 in data set [4] and in data set [5] was 0.04 µM each time.
As to `Cn1c(=O)n(-c2ccc(C(C)(C)C#N)cc2)c2c3cc(-c4cnc5ccccc5c4)ccc3ncc21` [BEZ235, 2-methyl-2-(4-(3-methyl-2-oxo-8-(quinolin-3-yl)-2,3-dihydroimidazo[4,5-c]quinolin-1-yl)phenyl)propanenitrile], the “inhibition of Akt and PDK1” value in data set [6] is listed as “poor inhibitory”.
`CCN1CCN(c2ccc(Nc3cc(N(C)C(=O)Nc4c(Cl)c(OC)cc(OC)c4Cl)ncn3)cc2)CC1` [BGJ398, 3-(2,6-dichloro-3,5-dimethoxyphenyl)-1-(6-(4-(4-ethylpiperazin-1-yl)phenylamino)pyrimidin-4-yl)-1-methylurea]: the “activity to Abl, Fyn, Kit, Lck, Lyn and Yes” value in [7] and in data set [8] was “little activity” throughout.
Consider `COc1cc2nccc(Oc3ccc(NC(=O)NC4CC4)c(Cl)c3)c2cc1C(N)=O` [E7080, 1-(4-(6-carbamoyl-7-methoxyquinolin-4-yloxy)-2-chlorophenyl)-3-cyclopropylurea], for which the “more selective for VEGFR2/3 against FGFR1, PDGFRα/β” value in [9] is recorded as ~10 fold.
With `CO[C@H]1C[C@@H]2CC[C@@H](C)[C@@](O)(O2)C(=O)C(=O)N2CCCC[C@H]2C(=O)O[C@H]([C@@H](C)C[C@@H]2CC[C@@H](OCCO)[C@H](OC)C2)CC(=O)[C@H](C)/C=C(\C)[C@@H](O)[C@@H](OC)C(=O)C(C)C[C@H](C)/C=C/C=C/C=C/1C` (stereo partly drawn) [Everolimus, 23,27-Epoxy-3H-pyrido[2,1-c][1,4]oxaazacyclohentriacontine, rapamycin deriv], the IC50 in data set [10] is 0.0016 to 0.0024 µM.
Take `COc1cc2c(Oc3ccc(NC(=O)C4(C(=O)Nc5ccc(F)cc5)CC4)cc3F)ccnc2cc1OCCCN1CCOCC1` [Foretinib, N-(3-fluoro-4-(6-methoxy-7-(3-morpholinopropoxy)quinolin-4-yloxy)phenyl)-N-(4-fluorophenyl)cyclopropane-1,1-dicarboxamide]: in data set [11], the “activity to FGFR1 and EGFR” value was “little activity”.
As to `COC(=O)[C@@]1(O)C[C@H]2O[C@]1(C)n1c3ccccc3c3c4c(c5c6ccccc6n2c5c31)C(=O)NC4` [K252a], the Ki in data set [12] was 0.018 µM; in [13], 0.02 µM; in [14], 0.0018 µM; in [15], 0.025 µM.
`CCCNC(=O)Nc1ccc(Oc2ncnc3cc(OC)c(OC)cc23)cc1Cl` [KRN 633, 1-(2-chloro-4-(6,7-dimethoxyquinazolin-4-yloxy)phenyl)-3-propylurea]: the “block of the phosphorylation of FGFR-1, EGFR or c-Met in cell” value in data set [16] is on record as “does not block”.
In the case of `COc1ccc(-c2ccc3c(N4CCOCC4)nc(N4C[C@@H](C)O[C@@H](C)C4)nc3n2)cc1CO` [KU-0063794, (5-(2-((2R,6S)-2,6-dimethylmorpholino)-4-morpholinopyrido[2,3-d]pyrimidin-7-yl)-2-methoxyphenyl)methanol], the “effect on PI3Ks” value in [17] is listed as “no effect”.
For the compound `O=C(c1ccc(/C=C/c2n[nH]c3ccccc23)cc1)N1CCNCC1` [KW-2449, (E)-(4-(2-(1H-indazol-3-yl)vinyl)phenyl)(piperazin-1-yl)methanone], the “effect on PDGFRβ, IGF-1R, EGFR” value in [18] is on record as “little effect”.
For the compound `C[C@]12O[C@H](C[C@]1(O)CO)n1c3ccccc3c3c4c(c5c6ccccc6n2c5c31)CNC4=O` [Lestaurtinib, (9S,10S,12R)-2,3,9,10,11,12-Hexahydro-10-hydroxy-10-(hydroxymethyl)-9-methyl-9,12-epoxy-1H-diindolo[1,2,3-fg:3′,2′,l′-kl]pyrrolo[3,4-i][1, 6]benzodiazocin-1-one], the IC50 in data set [19] is 0.03 to 0.1 µM; in data set [21], 0.03 to 0.1 µM; in [22], 0.02 to 0.03 µM; in [23], 0.02 to 0.03 µM. Further, the “effect against myeloproliferative disorders in vivo” value in data set [20] and in [24] was “effective” each time.
On to `O=C(O)CC[C@H]1CC[C@@](c2cc(F)ccc2F)(S(=O)(=O)c2ccc(Cl)cc2)CC1` [MK-0752, 3-((1r,4s)-4-(4-chlorophenylsulfonyl)-4-(2,5-difluorophenyl)cyclohexyl)propanoic acid], for which the IC50 in data set [25] was 0.005 µM.
As for `CCCS(=O)(=O)Nc1ccc(F)c(C(=O)c2c[nH]c3ncc(Cl)cc23)c1F` [PLX4720, N-(3-(5-chloro-1H-pyrrolo[2,3-b]pyridine-3-carbonyl)-2,4-difluorophenyl) propane-1-sulfonamide], in [26], the “selectivity for B-RafV600E than wild-type B-Raf” value was 10 fold. For the same compound, in data set [27], the “potency to c-Raf-1 (Y340D and Y341D mutations) relative to B-Raf V600E” value is “equally potent”.
With `COc1cc2c(cc1OC)C(=Cc1ccc(O)cc1)C(=O)N2` [RPI-1, 1,3-dihydro-5,6-dimethoxy-3-[(4-hydroxyphenyl)methylene]-H-indol-2-one], in data set [28], the IC50 is 24.5 µM.
Consider `CCn1c(N)c(C(=O)NC)c(=O)c2ccc(C#C[C@@](C)(O)COC)nc21` [SAR131675, (R)-2-amino-1-ethyl-7-(3-hydroxy-4-methoxy-3-methylbut-1-ynyl)-N-methyl-4-oxo-1,4-dihydro-1,8-naphthyridine-3-carboxamide], for which, in [29], the “activity against Akt1, CDKs, PLK1, EGFR, IGF-1R, c-Met, Flt2 etc.” value was “little activity”. Also, in data set [30], the inhibitory constant (Ki) was 0.012 µM, the “more selective for VEGFR3 than VEGFR1” value was “about 50 fold” and the “more selective for VEGFR3 than VEGFR2” value is reported as ~10 fold. Besides, in data set [30] (read-out: IC50 VEGFR3 (Flt4)), the IC50 is 0.023 µM.
With `CC(C)N(CCCNC(=O)Nc1ccc(C(C)(C)C)cc1)C[C@H]1O[C@@H](n2cc(Br)c3c(N)ncnc32)[C@H](O)[C@@H]1O` [SGC 0946, 1-[3-[[[(2R,3S,4R,5R)-5-(4-Amino-5-bromo-7H-pyrrolo[2,3-d]pyrimidin-7-yl)-3,4-dihydro-xytetrahydrofuran-2-yl]methyl](isopropyl)amino]pro-pyl]-3-[4-(2,2-dimethylethyl)phenyl]urea], the “activity against a panel of 12 PMTs and DNMT1” value in data set [31] was “inactive”.
On to `COc1cc2nccc(Oc3ccc(NC(=O)Nc4cc(C)on4)c(Cl)c3)c2cc1OC` [Tivozanib, 1-(2-chloro-4-(6,7-dimethoxyquinolin-4-yloxy)phenyl)-3-(5-methylisoxazol-3-yl)urea], for which the “activity against FGFR-1, Flt3, c-Met EGFR and IGF-1R” value in data set [32] and in [33] was “low activity” throughout.
